Test results taken from US5308856A, “Thiazolidine-2,4-dione derivatives, salts and preparation processes thereof” (Kyorin Pharmaceutical Co., Ltd., priority 1991, dated 1994).

Key:
[1] = tested on: blood glucose; experiment: Enhancement of Insulin Sensitivity in Rats; assay type: in vivo; details: 10 mg/kg/day p.o. once daily 5 days, fasted 18 h, insulin 0.1 unit/kg i.p., n = 5, *P < 0.01, reference (insulin only) 11.0 ± 0.8
Protocol: Enhancement of Insulin Sensitivity in Rats
After rats were orally administered with the compound of Example 1 once daily for 5 days at 10 mg/kg/day, they were fasted for 18 hours and then insulin was intraperitoneally injected at 0.1 unit/kg. Blood samples were collected from the tail vein 0 and 1 hour after the injection of insulin for the determination of blood glucose (Table 1).

[2] = target: T1, aldose reductase extracted from rat lens (Rattus norvegicus, UniProt P07943); experiment: Inhibition of Aldose Reductase in Vitro; assay type: biochemical
T1 construct: aldose reductase extracted from rat lens; from tissue; host or cells: rat lens
Source text: Inhibition of Aldose Reductase in Vitro
According to the method of Hyman and Kinoshita (J. Biol. Chem., 240, 877, 1965), inhibitory activity of the compound of Example 23 on aldose reductase extracted from rat lens was investigated. As a result, the following IC50 value was obtained (Table 3).

[3] = tested on: blood glucose; experiment: Improvement of Glucose Tolerance in Genetically Obese Mice (OGTT); assay type: in vivo, Genetically obese mice (CS57BL ob/ob mice); details: ob/ob mice, fasted 18 h, glucose 2 g/kg p.o.
Protocol: Improvement of Glucose Tolerance in Genetically Obese Mice
Genetically obese mice (CS57BL ob/ob mice) were orally administered with the compound of Example 1 once daily for 5 days at 10, 30 or 100 mg/kg/day, respectively. They were fasted for 18 hours and then 2 g/kg of glucose was orally administered. Blood samples were collected from the tail vein 0, 30, 60 and 120 minutes after the administration of glucose for the determination of blood glucose (Table 2).

Q: Which results are given for O=C1NC(=O)C(c2ccc(N3Cc4ccccc4C3=O)cc2)S1 (centres unmarked) [Example 1, 5-(4-(1-Oxoisoindoline-2-yl)Phenyl)Thiazolidine-2,4-Dione]?
A: 0 hour value-1 hour value (blood glucose) [1]: 23.0 ± 1.2 mg %; IC50 [2]: 90 nM; OGTT (% of control) ([3]; 10 mg/kg/day p.o. once daily 5 days): 98.2 % of control; OGTT (% of control) ([3]; 30 mg/kg/day p.o. once daily 5 days): 84.1 % of control; OGTT (% of control) ([3]; 100 mg/kg/day p.o. once daily 5 days): 81.1 % of control
